Assay results as given in ChEMBL document CHEMBL5154944, “Discovery of Aryloxyphenyl-Heptapeptide Hybrids as Potent and Selective Matrix Metalloproteinase-2 Inhibitors for the Treatment of Idiopathic Pulmonary Fibrosis” (J Med Chem, 2022).
pIC50: −log10 of the molar value. Non-standard residues stand in square brackets, D forms with d. Residues, ends and D or L forms follow the SMILES beside them. *: point of attachment. Benzoyl(4-OPh(4-CONH2)) = NC(=O)c1ccc(Oc2ccc(C(=O)*)cc2)cc1; Benzenesulfonyl(4-OPh) = O=S(=O)(c1ccc(Oc2ccccc2)cc1)*; Benzenesulfonyl(4-Ph) = O=S(=O)(c1ccc(-c2ccccc2)cc1)*; X1 = O=C(CCCCS(=O)(=O)c1ccc(Oc2ccccc2)cc1)*; Benzoyl(4-OPh) = O=C(c1ccc(Oc2ccccc2)cc1)*; X2 = O=C(c1ccc(Oc2ccc(F)cc2)cc1)*; NMeI = CC[C@H](C)[C@H](NC)C(=O)O; NMeE = CN[C@@H](CCC(=O)O)C(=O)O; NMeL = CN[C@@H](CC(C)C)C(=O)O; NMeM = CN[C@@H](CCSC)C(=O)O; NMeV = CN[C@H](C(=O)O)C(C)C; β3hP = O=C(O)C[C@@H]1CCCN1; Orn = NCCC[C@H](N)C(=O)O; Dab = NCC[C@H](N)C(=O)O; Dap = NC[C@H](N)C(=O)O; Ahx = NCCCCCC(=O)O; Ava = NCCCCC(=O)O; GABA = NCCCC(=O)O; βAla = NCCC(=O)O

Legend:
Homo sapiens = species: Homo sapiens; assay: Selectivity ratio of IC50 for recombinant human MMP12 to IC50 for recombinant human MMP2
Collagenase 3 = Collagenase 3 (Homo sapiens, UniProt P45452)
[1] = target: 72 kDa type IV collagenase (Homo sapiens, UniProt P08253)
[2] = target: Macrophage metalloelastase (Homo sapiens, UniProt P39900)
Matrilysin = target: T1, Matrilysin (Homo sapiens, UniProt P09237)
T1 sequence (P09237 whole entry): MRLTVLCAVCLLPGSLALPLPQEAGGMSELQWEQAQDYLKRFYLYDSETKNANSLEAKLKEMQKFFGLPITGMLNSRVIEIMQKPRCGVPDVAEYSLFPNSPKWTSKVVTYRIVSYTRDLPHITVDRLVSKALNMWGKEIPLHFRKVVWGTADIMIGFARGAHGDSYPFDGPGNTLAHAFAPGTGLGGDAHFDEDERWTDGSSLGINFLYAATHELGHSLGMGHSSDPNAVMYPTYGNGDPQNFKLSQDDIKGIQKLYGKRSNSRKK

[3] = target: Matrix metalloproteinase-14 (Homo sapiens, UniProt P50281); assay: Inhibition of recombinant human MMP14 using MOCAc-Lys-Pro-Leu-Gly-Leu-A2pr(Dnp)-Ala-Arg-NH2 as substrate preincubated for 15 mins followed by substrate addition by fluroscence based assay

72 kDa type IV collagenase, sequence (P08253 whole entry): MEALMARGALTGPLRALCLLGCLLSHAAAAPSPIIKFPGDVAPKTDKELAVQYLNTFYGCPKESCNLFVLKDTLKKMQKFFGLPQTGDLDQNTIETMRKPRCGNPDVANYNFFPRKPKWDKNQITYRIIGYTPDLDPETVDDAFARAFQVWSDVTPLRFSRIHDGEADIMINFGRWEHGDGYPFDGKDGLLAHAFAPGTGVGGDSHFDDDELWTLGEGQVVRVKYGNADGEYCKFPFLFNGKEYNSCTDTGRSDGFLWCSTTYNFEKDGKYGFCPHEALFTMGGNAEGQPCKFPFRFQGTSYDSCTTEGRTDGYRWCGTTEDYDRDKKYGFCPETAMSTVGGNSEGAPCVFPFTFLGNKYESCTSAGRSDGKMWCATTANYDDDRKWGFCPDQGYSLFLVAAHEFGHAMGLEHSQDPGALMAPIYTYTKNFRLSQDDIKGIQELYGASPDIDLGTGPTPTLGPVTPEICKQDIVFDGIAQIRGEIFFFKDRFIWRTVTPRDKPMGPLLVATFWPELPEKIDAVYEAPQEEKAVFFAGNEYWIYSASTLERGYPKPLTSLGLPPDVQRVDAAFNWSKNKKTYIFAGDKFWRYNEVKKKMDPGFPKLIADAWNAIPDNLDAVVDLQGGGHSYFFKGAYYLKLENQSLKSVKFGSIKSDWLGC
Macrophage metalloelastase, sequence (P39900 whole entry): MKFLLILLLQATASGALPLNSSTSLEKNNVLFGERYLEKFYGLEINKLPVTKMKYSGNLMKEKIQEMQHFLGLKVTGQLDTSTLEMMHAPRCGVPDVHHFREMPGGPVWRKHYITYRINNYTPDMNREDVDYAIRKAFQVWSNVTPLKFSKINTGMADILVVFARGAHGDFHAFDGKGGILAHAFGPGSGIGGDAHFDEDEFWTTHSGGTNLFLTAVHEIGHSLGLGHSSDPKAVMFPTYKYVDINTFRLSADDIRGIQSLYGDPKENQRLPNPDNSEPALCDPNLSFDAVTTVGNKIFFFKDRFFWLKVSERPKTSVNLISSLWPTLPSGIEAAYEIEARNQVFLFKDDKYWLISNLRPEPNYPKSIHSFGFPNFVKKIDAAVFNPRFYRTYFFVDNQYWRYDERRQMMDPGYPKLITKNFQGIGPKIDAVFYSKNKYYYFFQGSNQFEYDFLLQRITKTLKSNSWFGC

| SMILES | pIC50 [2] | pIC50 (Matrilysin) | pIC50 [3] | Ratio IC50 (Homo sapiens) | pIC50 (Collagenase 3) | pIC50 [1] |
| --- | --- | --- | --- | --- | --- | --- |
| CSCC[C@H](NC(=O)[C@H](CC(C)C)NC(=O)[C@H](C)NC(=O)[C@H](CC(=O)O)NC(=O)[C@H](CC(N)=O)NC(=O)CCCCS(=O)(=O)c1ccc(Oc2ccccc2)cc1)C(=O)N1CCC[C@H]1C(N)=O (X1-NDALMP-NH2) |  |  |  | 69 | 7.24 | 10.05 |
| CSCC[C@H](NC(=O)[C@H](CC(C)C)NC(=O)[C@H](C)NC(=O)[C@H](CC(=O)O)NC(=O)[C@H](CC(N)=O)NC(=O)CCCNS(=O)(=O)c1ccc(Oc2ccccc2)cc1)C(=O)N1CCC[C@H]1C(N)=O ({Benzenesulfonyl(4-OPh)-GABA}-NDALMP-NH2) |  |  |  | 145 | 7.26 | 10.08 |
| CC[C@H](C)[C@@H](C(=O)N1CCC[C@H]1C(N)=O)N(C)C(=O)[C@H](CC(C)C)NC(=O)[C@H](C)NC(=O)[C@H](CC(=O)O)NC(=O)[C@H](CC(N)=O)NC(=O)CCCNS(=O)(=O)c1ccc(Oc2ccccc2)cc1 ({Benzenesulfonyl(4-OPh)-GABA}-NDAL[NMeI]P-NH2) |  |  |  | 186 | 7.80 | 10.01 |
| CC(C)C[C@H](NC(=O)[C@H](C)NC(=O)[C@H](CC(=O)O)NC(=O)[C@H](CC(N)=O)NC(=O)CCCNS(=O)(=O)c1ccc(Oc2ccccc2)cc1)C(=O)N(C)[C@@H](CC(C)C)C(=O)N1CCC[C@H]1C(N)=O ({Benzenesulfonyl(4-OPh)-GABA}-NDAL[NMeL]P-NH2) |  |  |  | 62 | 8.04 | 10.18 |
| CC(C)C[C@H](NC(=O)[C@H](C)NC(=O)[C@H](CC(=O)O)NC(=O)[C@H](CC(N)=O)NC(=O)CCCNS(=O)(=O)c1ccc(Oc2ccccc2)cc1)C(=O)N(C)[C@@H](CC(C)C)C(=O)N1CCC[C@H]1CC(N)=O ({Benzenesulfonyl(4-OPh)-GABA}-NDAL[NMeL][β3hP]-NH2) |  |  |  | 24 | 7.82 | 10.26 |
| CSCC[C@@H](C(=O)N1CCC[C@H]1C(N)=O)N(C)C(=O)[C@H](CC(C)C)NC(=O)[C@H](C)NC(=O)[C@H](CC(=O)O)NC(=O)[C@H](CC(N)=O)NC(=O)CCCNS(=O)(=O)c1ccc(Oc2ccccc2)cc1 ({Benzenesulfonyl(4-OPh)-GABA}-NDAL[NMeM]P-NH2) |  |  |  | 57 | 8.15 | 9.89 |
| CSCC[C@@H](C(=O)N1CCC[C@H]1CC(N)=O)N(C)C(=O)[C@H](CC(C)C)NC(=O)[C@H](C)NC(=O)[C@H](CC(=O)O)NC(=O)[C@H](CC(N)=O)NC(=O)CCCNS(=O)(=O)c1ccc(Oc2ccccc2)cc1 ({Benzenesulfonyl(4-OPh)-GABA}-NDAL[NMeM][β3hP]-NH2) |  |  |  | 43 | 8.24 | 10.36 |
| CC(C)C[C@H](NC(=O)[C@H](C)NC(=O)[C@H](CC(=O)O)NC(=O)[C@H](CC(N)=O)NC(=O)CCCNS(=O)(=O)c1ccc(Oc2ccccc2)cc1)C(=O)N(C)[C@H](C(=O)N1CCC[C@H]1C(N)=O)C(C)C ({Benzenesulfonyl(4-OPh)-GABA}-NDAL[NMeV]P-NH2) |  |  |  | 282 | 7.68 | 10.11 |
| CC(C)C[C@H](NC(=O)[C@H](C)NC(=O)[C@H](CC(=O)O)NC(=O)[C@H](CC(N)=O)NC(=O)CCCNS(=O)(=O)c1ccc(Oc2ccccc2)cc1)C(=O)N(C)[C@H](C(=O)N1CCC[C@H]1CC(N)=O)C(C)C ({Benzenesulfonyl(4-OPh)-GABA}-NDAL[NMeV][β3hP]-NH2) |  |  |  | 122 | 7.60 | 10.34 |
| CC[C@H](C)[C@@H](C(=O)N1CCC[C@H]1CC(N)=O)N(C)C(=O)[C@H](CC(C)C)NC(=O)[C@H](CCN)NC(=O)[C@H](CC(=O)O)NC(=O)[C@H](CC(N)=O)NC(=O)CCCNS(=O)(=O)c1ccc(Oc2ccccc2)cc1 ({Benzenesulfonyl(4-OPh)-GABA}-ND[Dab]L[NMeI][β3hP]-NH2) |  |  |  | 6010 | 6.35 | 10.05 |
| CC[C@H](C)[C@@H](C(=O)N1CCC[C@H]1CC(N)=O)N(C)C(=O)[C@H](CC(C)C)NC(=O)[C@H](CN)NC(=O)[C@H](CC(=O)O)NC(=O)[C@H](CC(N)=O)NC(=O)CCCNS(=O)(=O)c1ccc(Oc2ccccc2)cc1 ({Benzenesulfonyl(4-OPh)-GABA}-ND[Dap]L[NMeI][β3hP]-NH2) |  |  |  | 977 | 6.56 | 9.89 |
| CC[C@H](C)[C@@H](C(=O)N1CCC[C@H]1CC(N)=O)N(C)C(=O)[C@H](CC(C)C)NC(=O)[C@H](CCCN)NC(=O)[C@H](CC(=O)O)NC(=O)[C@H](CC(N)=O)NC(=O)CCCNS(=O)(=O)c1ccc(Oc2ccccc2)cc1 ({Benzenesulfonyl(4-OPh)-GABA}-ND[Orn]L[NMeI][β3hP]-NH2) |  |  |  | 189 | 6.87 | 9.21 |
| CSCC[C@H](NC(=O)[C@H](CC(C)C)NC(=O)[C@H](C)NC(=O)[C@H](CC(=O)O)NC(=O)[C@H](CC(N)=O)NC(=O)CCNS(=O)(=O)c1ccc(Oc2ccccc2)cc1)C(=O)N1CCC[C@H]1C(N)=O ({Benzenesulfonyl(4-OPh)-βAla}-NDALMP-NH2) |  |  |  | 51 | 6.94 | 9.31 |
| CSCC[C@H](NC(=O)[C@H](CC(C)C)NC(=O)[C@H](C)NC(=O)[C@H](CC(=O)O)NC(=O)[C@H](CC(N)=O)NC(=O)CCCCNS(=O)(=O)c1ccc(-c2ccccc2)cc1)C(=O)N1CCC[C@H]1C(N)=O ({Benzenesulfonyl(4-Ph)-Ava}-NDALMP-NH2) |  |  |  | 12 | 5.77 | 8.54 |
| CSCC[C@H](NC(=O)[C@H](CC(C)C)NC(=O)[C@H](C)NC(=O)[C@H](CC(=O)O)NC(=O)[C@H](CC(N)=O)NC(=O)CCCNS(=O)(=O)c1ccc(-c2ccccc2)cc1)C(=O)N1CCC[C@H]1C(N)=O ({Benzenesulfonyl(4-Ph)-GABA}-NDALMP-NH2) |  |  |  | 5 | 5.95 | 8.04 |
| CSCC[C@H](NC(=O)[C@H](CC(C)C)NC(=O)[C@H](C)NC(=O)[C@H](CC(=O)O)NC(=O)[C@H](CC(N)=O)NC(=O)CCNS(=O)(=O)c1ccc(-c2ccccc2)cc1)C(=O)N1CCC[C@H]1C(N)=O ({Benzenesulfonyl(4-Ph)-βAla}-NDALMP-NH2) |  |  |  | 18 | 5.76 | 8.20 |
| CC(C)C[C@H](NC(=O)[C@H](CCN)NC(=O)[C@H](CC(=O)O)NC(=O)[C@H](CC(N)=O)NC(=O)CCCCCNC(=O)c1ccc(Oc2ccc(C(N)=O)cc2)cc1)C(=O)N(C)[C@@H](CCC(=O)O)C(=O)N1CCC[C@H]1CC(N)=O ({Benzoyl(4-OPh(4-CONH2))-Ahx}-ND[Dab]L[NMeE][β3hP]-NH2) |  |  |  | 15600 | 6.72 | 9.89 |
| CC(C)C[C@H](NC(=O)[C@H](CCN)NC(=O)[C@H](CC(=O)O)NC(=O)[C@H](CC(N)=O)NC(=O)CCCNC(=O)c1ccc(Oc2ccc(C(N)=O)cc2)cc1)C(=O)N(C)[C@@H](CCC(=O)O)C(=O)N1CCC[C@H]1CC(N)=O ({Benzoyl(4-OPh(4-CONH2))-GABA}-ND[Dab]L[NMeE][β3hP]-NH2) |  |  |  | 23100 | 6.27 | 9.77 |
| CC(C)C[C@H](NC(=O)[C@H](CCN)NC(=O)[C@H](CC(=O)O)NC(=O)[C@H](CC(N)=O)NC(=O)CCNC(=O)c1ccc(Oc2ccc(C(N)=O)cc2)cc1)C(=O)N(C)[C@@H](CCC(=O)O)C(=O)N1CCC[C@H]1CC(N)=O ({Benzoyl(4-OPh(4-CONH2))-βAla}-ND[Dab]L[NMeE][β3hP]-NH2) |  |  |  | 8390 | 6.84 | 9.28 |
| CC(C)C[C@H](NC(=O)[C@H](CCN)NC(=O)[C@H](CC(=O)O)NC(=O)[C@H](CC(N)=O)NC(=O)CCCNC(=O)c1ccc(Oc2ccccc2)cc1)C(=O)N(C)[C@@H](CCC(=O)O)C(=O)N1CCC[C@H]1CC(N)=O ({Benzoyl(4-OPh)-GABA}-ND[Dab]L[NMeE][β3hP]-NH2) |  |  |  | 27200 | 5.70 |  |
| CC(C)C[C@H](NC(=O)[C@H](CCN)NC(=O)[C@H](CC(=O)O)NC(=O)[C@H](CC(N)=O)NC(=O)CCCNC(=O)c1ccc(Oc2ccc(F)cc2)cc1)C(=O)N(C)[C@@H](CCC(=O)O)C(=O)N1CCC[C@H]1CC(N)=O ({X2-GABA}-ND[Dab]L[NMeE][β3hP]-NH2) |  |  |  | 40700 | 5.89 | 9.96 |

The next lines start with results.

| pIC50 [2] | pIC50 (Matrilysin) | pIC50 [3] | SMILES | Ratio IC50 (Homo sapiens) | pIC50 (Collagenase 3) | pIC50 [1] |
| --- | --- | --- | --- | --- | --- | --- |
| 6.04 |  |  | CSCC[C@H](NC(=O)[C@H](CC(C)C)NC(=O)[C@H](C)NC(=O)[C@H](CC(=O)O)NC(=O)[C@H](CC(N)=O)NC(=O)CNS(=O)(=O)c1ccc(Oc2ccccc2)cc1)C(=O)N1CCC[C@H]1C(N)=O ({Benzenesulfonyl(4-OPh)}-GNDALMP-NH2) | 13 | 5.19 | 7.16 |
| 5.38 |  |  | CSCC[C@H](NC(=O)[C@H](CC(C)C)NC(=O)[C@H](C)NC(=O)[C@H](CC(=O)O)NC(=O)[C@H](CC(N)=O)NC(=O)CNS(=O)(=O)c1ccc(-c2ccccc2)cc1)C(=O)N1CCC[C@H]1C(N)=O ({Benzenesulfonyl(4-Ph)}-GNDALMP-NH2) |  | < 5.00 | < 7.00 |
| 9.34 | 8.29 | 8.96 | CNC(=O)[C@H](Cc1c[nH]c2ccccc12)NC(=O)[C@@H](CC(=O)NO)CC(C)C [ILOMASTAT] |  | 9.55 |  |
